Results reported in ChEMBL document CHEMBL1149126, “3-phenyl-6-(2-pyridyl)methyloxy-1,2,4-triazolo[3,4-a]phthalazines and analogues: high-affinity gamma-aminobutyric acid-A benzodiazepine receptor ligands with alpha 2, alpha 3, and alpha 5-subtype binding selectivity over alpha 1” (J Med Chem, 2004).

Biological target: T1, GABA-A receptor; alpha-3/beta-3/gamma-2 (Homo sapiens, UniProt P18507+P28472+P34903)
T1 sequence (P18507 whole entry): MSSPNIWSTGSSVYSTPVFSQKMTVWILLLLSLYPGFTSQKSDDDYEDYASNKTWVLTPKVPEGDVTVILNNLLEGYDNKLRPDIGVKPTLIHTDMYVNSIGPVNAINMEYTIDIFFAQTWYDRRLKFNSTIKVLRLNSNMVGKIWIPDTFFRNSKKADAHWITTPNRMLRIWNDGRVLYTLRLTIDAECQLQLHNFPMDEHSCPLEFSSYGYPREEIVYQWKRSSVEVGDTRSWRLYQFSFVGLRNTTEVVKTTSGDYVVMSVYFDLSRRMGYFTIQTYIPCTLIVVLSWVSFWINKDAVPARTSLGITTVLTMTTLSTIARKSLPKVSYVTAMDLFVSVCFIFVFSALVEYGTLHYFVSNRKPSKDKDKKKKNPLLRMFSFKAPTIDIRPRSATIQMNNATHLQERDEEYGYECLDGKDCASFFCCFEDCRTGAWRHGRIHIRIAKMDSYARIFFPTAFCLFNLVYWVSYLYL
T1 sequence (P28472 whole entry): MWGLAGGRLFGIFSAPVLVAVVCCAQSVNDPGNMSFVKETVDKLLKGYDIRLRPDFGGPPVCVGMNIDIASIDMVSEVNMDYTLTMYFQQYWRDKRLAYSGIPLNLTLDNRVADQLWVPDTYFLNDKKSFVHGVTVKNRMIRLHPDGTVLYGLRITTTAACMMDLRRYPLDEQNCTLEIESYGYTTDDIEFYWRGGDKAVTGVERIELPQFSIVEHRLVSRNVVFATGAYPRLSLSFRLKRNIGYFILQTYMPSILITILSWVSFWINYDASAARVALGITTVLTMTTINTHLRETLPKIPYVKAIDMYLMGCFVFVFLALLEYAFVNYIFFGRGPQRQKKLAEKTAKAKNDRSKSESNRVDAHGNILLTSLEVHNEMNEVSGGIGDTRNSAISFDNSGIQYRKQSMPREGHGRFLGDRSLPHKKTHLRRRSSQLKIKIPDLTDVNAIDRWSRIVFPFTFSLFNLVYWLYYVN
T1 sequence (P34903 whole entry): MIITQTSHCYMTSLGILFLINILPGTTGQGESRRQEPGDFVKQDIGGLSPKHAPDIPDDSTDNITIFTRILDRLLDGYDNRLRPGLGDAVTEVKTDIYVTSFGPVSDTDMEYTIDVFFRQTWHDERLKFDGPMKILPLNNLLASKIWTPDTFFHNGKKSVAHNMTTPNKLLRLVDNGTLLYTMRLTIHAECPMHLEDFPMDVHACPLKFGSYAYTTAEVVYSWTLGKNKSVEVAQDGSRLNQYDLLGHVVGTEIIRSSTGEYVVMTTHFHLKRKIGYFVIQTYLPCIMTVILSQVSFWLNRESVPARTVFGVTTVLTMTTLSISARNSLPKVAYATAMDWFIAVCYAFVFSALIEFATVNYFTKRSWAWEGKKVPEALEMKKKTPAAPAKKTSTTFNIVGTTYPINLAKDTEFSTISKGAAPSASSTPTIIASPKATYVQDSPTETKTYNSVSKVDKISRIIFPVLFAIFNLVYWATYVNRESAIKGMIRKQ
Test: Binding affinity for human GABA-A receptor alpha-3-beta-3-gamma-2 subunits in L(tk-) cells
Assay type: cell-based

Structure (SMILES) | Ki
Cc1cccnc1COc1nn2c(-c3ccccc3)nnc2c2ccccc12 | 1 nM
c1ccc(Cc2nnc3c4ccccc4c(OCc4ccccn4)nn23)cc1 | 190 nM
Fc1ccc(-c2nnc3c4ccccc4c(OCc4ccccn4)nn23)cc1 | 2.4 nM
COc1ccc(COc2nn3c(-c4ccccc4)nnc3c3ccccc23)cc1 | 190 nM
CC(C)(C)c1nnc2c3ccccc3c(OCc3ccccn3)nn12 | > 1000 nM
Cc1ccc(-c2nnc3c4ccccc4c(OCc4ccccn4)nn23)cc1 | 11 nM
c1ccc(-c2nnc3c4ccccc4c(OCc4cccs4)nn23)cc1 | 300 nM
CCOC(=O)c1ncn2c1[C@@H]1CCCN1C(=O)c1cc(OC)ccc1-2 | 11 nM
c1ccc(-c2nnc3c4ccccc4c(OCc4cccnc4)nn23)cc1 | 19 nM
COc1ccccc1COc1nn2c(-c3ccccc3)nnc2c2ccccc12 | > 1000 nM
c1ccc(COc2nn3c(-c4ccccc4)nnc3c3ccccc23)cc1 | 41 nM
Cn1ccnc1COc1nn2c(-c3ccccc3)nnc2c2ccccc12 | 0.22 nM
c1ccc(Oc2nn3c(-c4ccccc4)nnc3c3ccccc23)cc1 | > 1000 nM
Cc1ccnc(COc2nn3c(-c4ccccc4)nnc3c3ccccc23)c1 | 10 nM
Cc1ccc(COc2nn3c(-c4ccccc4)nnc3c3ccccc23)nc1 | 4.3 nM
c1ccc(-c2nnc3c4ccccc4c(OCC4CCCCC4)nn23)cc1 | > 1000 nM
COc1ccc(-c2nnc3c4ccccc4c(OCc4ccccc4)nn23)cc1 | 170 nM

Biological target: T2, GABA-A receptor; alpha-5/beta-3/gamma-2 (Homo sapiens, UniProt P18507+P28472+P31644)
T2 sequence (P18507 whole entry): T1 sequence (P18507 whole entry)
T2 sequence (P28472 whole entry): T1 sequence (P28472 whole entry)
T2 sequence (P31644 whole entry): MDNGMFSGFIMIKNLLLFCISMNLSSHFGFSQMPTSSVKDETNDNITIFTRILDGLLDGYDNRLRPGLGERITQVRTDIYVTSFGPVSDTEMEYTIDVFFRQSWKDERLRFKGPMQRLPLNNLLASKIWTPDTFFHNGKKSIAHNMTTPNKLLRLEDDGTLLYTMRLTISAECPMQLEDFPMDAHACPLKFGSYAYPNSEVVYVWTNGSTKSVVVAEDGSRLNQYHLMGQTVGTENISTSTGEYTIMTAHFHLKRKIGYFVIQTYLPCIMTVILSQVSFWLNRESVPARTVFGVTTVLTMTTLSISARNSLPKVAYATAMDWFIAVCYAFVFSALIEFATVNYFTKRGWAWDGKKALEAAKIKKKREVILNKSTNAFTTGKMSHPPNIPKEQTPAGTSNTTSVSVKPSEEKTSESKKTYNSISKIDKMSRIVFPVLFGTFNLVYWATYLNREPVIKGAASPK
Test: Binding affinity for human GABA-A receptor alpha-5-beta-3-gamma-2 subunits in L(tk-) cells
Assay type: cell-based

Structure (SMILES) | Ki
Cc1cccnc1COc1nn2c(-c3ccccc3)nnc2c2ccccc12 | 0.88 nM
c1ccc(Cc2nnc3c4ccccc4c(OCc4ccccn4)nn23)cc1 | 18 nM
Fc1ccc(-c2nnc3c4ccccc4c(OCc4ccccn4)nn23)cc1 | 1.7 nM
COc1ccc(COc2nn3c(-c4ccccc4)nnc3c3ccccc23)cc1 | 160 nM
CC(C)(C)c1nnc2c3ccccc3c(OCc3ccccn3)nn12 | > 1000 nM
Cc1ccc(-c2nnc3c4ccccc4c(OCc4ccccn4)nn23)cc1 | 4 nM
c1ccc(-c2nnc3c4ccccc4c(OCc4cccs4)nn23)cc1 | 170 nM
CCOC(=O)c1ncn2c1[C@@H]1CCCN1C(=O)c1cc(OC)ccc1-2 | 0.4 nM
c1ccc(-c2nnc3c4ccccc4c(OCc4cccnc4)nn23)cc1 | 31 nM
COc1ccccc1COc1nn2c(-c3ccccc3)nnc2c2ccccc12 | > 1000 nM
c1ccc(COc2nn3c(-c4ccccc4)nnc3c3ccccc23)cc1 | 38 nM
Cn1ccnc1COc1nn2c(-c3ccccc3)nnc2c2ccccc12 | 0.17 nM
c1ccc(Oc2nn3c(-c4ccccc4)nnc3c3ccccc23)cc1 | > 1000 nM
Cc1ccnc(COc2nn3c(-c4ccccc4)nnc3c3ccccc23)c1 | 3.7 nM
Cc1ccc(COc2nn3c(-c4ccccc4)nnc3c3ccccc23)nc1 | 1.1 nM
c1ccc(-c2nnc3c4ccccc4c(OCC4CCCCC4)nn23)cc1 | > 1000 nM
Cc1ccc(-c2nc3ccc(C)cn3c2CC(=O)N(C)C)cc1 [ZOLPIDEM] | > 15000 nM
COc1ccc(-c2nnc3c4ccccc4c(OCc4ccccc4)nn23)cc1 | 72 nM

Biological target: T3, GABA-A receptor; alpha-2/beta-3/gamma-2 (Homo sapiens, UniProt P18507+P28472+P47869)
T3 sequence (P18507 whole entry): T1 sequence (P18507 whole entry)
T3 sequence (P28472 whole entry): T1 sequence (P28472 whole entry)
T3 sequence (P47869 whole entry): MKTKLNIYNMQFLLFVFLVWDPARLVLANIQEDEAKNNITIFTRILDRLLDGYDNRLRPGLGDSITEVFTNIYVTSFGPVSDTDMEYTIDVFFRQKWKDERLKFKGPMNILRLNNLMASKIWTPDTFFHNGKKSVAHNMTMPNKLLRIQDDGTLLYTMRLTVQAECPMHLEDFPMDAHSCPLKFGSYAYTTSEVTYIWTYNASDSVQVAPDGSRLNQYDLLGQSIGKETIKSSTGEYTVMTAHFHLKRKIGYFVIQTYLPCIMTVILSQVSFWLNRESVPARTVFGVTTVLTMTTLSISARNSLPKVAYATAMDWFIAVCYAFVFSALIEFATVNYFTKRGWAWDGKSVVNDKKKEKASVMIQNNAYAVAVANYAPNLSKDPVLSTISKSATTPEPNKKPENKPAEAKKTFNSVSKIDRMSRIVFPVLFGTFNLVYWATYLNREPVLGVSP
Test: Binding affinity for human GABA-A receptor alpha-2-beta-3-gamma-2 subunits in L(tk-) cells
Assay type: cell-based

Structure (SMILES) | Ki
Cc1cccnc1COc1nn2c(-c3ccccc3)nnc2c2ccccc12 | 2.3 nM
c1ccc(Cc2nnc3c4ccccc4c(OCc4ccccn4)nn23)cc1 | 340 nM
Fc1ccc(-c2nnc3c4ccccc4c(OCc4ccccn4)nn23)cc1 | 3.7 nM
COc1ccc(COc2nn3c(-c4ccccc4)nnc3c3ccccc23)cc1 | 220 nM
CC(C)(C)c1nnc2c3ccccc3c(OCc3ccccn3)nn12 | > 1000 nM
Cc1ccc(-c2nnc3c4ccccc4c(OCc4ccccn4)nn23)cc1 | 16 nM
c1ccc(-c2nnc3c4ccccc4c(OCc4cccs4)nn23)cc1 | 560 nM
CCOC(=O)c1ncn2c1[C@@H]1CCCN1C(=O)c1cc(OC)ccc1-2 | 22 nM
c1ccc(-c2nnc3c4ccccc4c(OCc4cccnc4)nn23)cc1 | 16 nM
COc1ccccc1COc1nn2c(-c3ccccc3)nnc2c2ccccc12 | > 1000 nM
c1ccc(COc2nn3c(-c4ccccc4)nnc3c3ccccc23)cc1 | 16 nM
Cn1ccnc1COc1nn2c(-c3ccccc3)nnc2c2ccccc12 | 0.7 nM
c1ccc(Oc2nn3c(-c4ccccc4)nnc3c3ccccc23)cc1 | > 1000 nM
Cc1ccnc(COc2nn3c(-c4ccccc4)nnc3c3ccccc23)c1 | 11 nM
Cc1ccc(COc2nn3c(-c4ccccc4)nnc3c3ccccc23)nc1 | 3.6 nM
c1ccc(-c2nnc3c4ccccc4c(OCC4CCCCC4)nn23)cc1 | > 1000 nM
COc1ccc(-c2nnc3c4ccccc4c(OCc4ccccc4)nn23)cc1 | 850 nM

Biological target: T4, GABA-A receptor; alpha-1/beta-3/gamma-2 (Homo sapiens, UniProt P14867+P18507+P28472)
T4 sequence (P14867 whole entry): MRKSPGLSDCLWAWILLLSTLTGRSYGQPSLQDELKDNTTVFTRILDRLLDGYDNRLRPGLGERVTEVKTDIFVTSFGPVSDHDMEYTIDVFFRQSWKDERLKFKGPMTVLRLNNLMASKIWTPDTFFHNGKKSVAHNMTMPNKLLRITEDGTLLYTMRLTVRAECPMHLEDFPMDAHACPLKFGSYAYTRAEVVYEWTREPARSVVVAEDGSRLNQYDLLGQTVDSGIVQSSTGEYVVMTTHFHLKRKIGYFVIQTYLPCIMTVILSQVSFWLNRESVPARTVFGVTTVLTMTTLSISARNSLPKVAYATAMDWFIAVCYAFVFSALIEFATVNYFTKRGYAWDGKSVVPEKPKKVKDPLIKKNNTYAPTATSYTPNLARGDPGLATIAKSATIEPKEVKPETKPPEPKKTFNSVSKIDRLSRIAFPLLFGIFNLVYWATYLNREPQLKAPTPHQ
T4 sequence (P18507 whole entry): T1 sequence (P18507 whole entry)
T4 sequence (P28472 whole entry): T1 sequence (P28472 whole entry)
Test: Binding affinity for human GABA-A receptor alpha-1-beta-3-gamma-2 subunits in L(tk-) cells

Structure (SMILES) | Ki
Cc1cccnc1COc1nn2c(-c3ccccc3)nnc2c2ccccc12 | 2.4 nM
c1ccc(Cc2nnc3c4ccccc4c(OCc4ccccn4)nn23)cc1 | 260 nM
Fc1ccc(-c2nnc3c4ccccc4c(OCc4ccccn4)nn23)cc1 | 3.9 nM
COc1ccc(COc2nn3c(-c4ccccc4)nnc3c3ccccc23)cc1 | 200 nM
CC(C)(C)c1nnc2c3ccccc3c(OCc3ccccn3)nn12 | > 1000 nM
c1ccc(-c2nnc3c4ccccc4c(OCc4cccs4)nn23)cc1 | 240 nM
CCOC(=O)c1ncn2c1[C@@H]1CCCN1C(=O)c1cc(OC)ccc1-2 | 44 nM
c1ccc(-c2nnc3c4ccccc4c(OCc4cccnc4)nn23)cc1 | 19 nM
COc1ccccc1COc1nn2c(-c3ccccc3)nnc2c2ccccc12 | > 1000 nM
c1ccc(COc2nn3c(-c4ccccc4)nnc3c3ccccc23)cc1 | 280 nM
Cn1ccnc1COc1nn2c(-c3ccccc3)nnc2c2ccccc12 | 0.51 nM
c1ccc(Oc2nn3c(-c4ccccc4)nnc3c3ccccc23)cc1 | > 1000 nM
Cc1ccnc(COc2nn3c(-c4ccccc4)nnc3c3ccccc23)c1 | 18 nM
Cc1ccc(COc2nn3c(-c4ccccc4)nnc3c3ccccc23)nc1 | 4.8 nM
c1ccc(-c2nnc3c4ccccc4c(OCC4CCCCC4)nn23)cc1 | > 1000 nM
